Experimental data published in US12077503B2, “Substituted cyclic amides and their use as herbicides” (FMC CORPORATION, priority 2015, dated 2024).

Columns and labels:
Format in all cases: in vivo
[1] = tested on: barnyardgrass (Echinochloa crus-galli); experiment: Test B flooded paddy test; settings: Echinochloa crus-galli, 250 g ai/ha, Flood; 0 to 100 scale where 0 is no effect and 100 is complete control; read-out: Barnyardgrass plant response rating
In short: (§1)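 Plants at 2-leaf stage flooded to 3 cm above soil, with compounds applied directly to paddy water and that depth maintained. Plants kept in greenhouse 13–15 d. Visual rating versus controls on a 0 (no effect) to 100 (complete control) scale.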

[2] = tested on: sedge, umbrella (small-flower umbrella sedge, Cyperus difformis); experiment: Test B flooded paddy test; settings: Cyperus difformis, 250 g ai/ha, Flood; 0 to 100 scale where 0 is no effect and 100 is complete control; read-out: Sedge, Umbrella plant response rating
In short: as §1

[3] = tested on: rice (Oryra sativa); experiment: Test B flooded paddy test; settings: Oryza sativa, 250 g ai/ha, Flood; 0 to 100 scale where 0 is no effect and 100 is complete control; read-out: Rice plant response rating
In short: as §1

[4] = tested on: ducksalad (Heteranthera limosa); experiment: Test B flooded paddy test; settings: Heteranthera limosa, 250 g ai/ha, Flood; 0 to 100 scale where 0 is no effect and 100 is complete control; read-out: Ducksalad plant response rating
In short: as §1

[5] = tested on: barnyardgrass (Echinochloa crus-galli); experiment: Test A preemergence; settings: Echinochloa crus-galli, pre-emergence, 240 h, 0 to 100 scale where 0 is no effect and 100 is complete control, read-out: Barnyardgrass plant response rating; for pest or weed control at 31 g/ha: 31 g ai/ha, Preemergence; for pest or weed control at 125 g/ha: 125 g ai/ha, preemergence, approx. 10 d
In short: (§2)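 In a loam soil and sand blend, planted seeds got a preemergence directed soil spray, and young plants at the one- to two-leaf stage, 2–10 cm high, got a postemergence application; ~10 d greenhouse hold; injury rated visually, 0 = none, 100 = complete control.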

[6] = tested on: ryegrass, Italian (Italian ryegrass, Lolium multiflorum); experiment: Test A preemergence; settings: Lolium multiflorum, pre-emergence, 240 h, 0 to 100 scale where 0 is no effect and 100 is complete control, read-out: Ryegrass, Italian plant response rating; for pest or weed control at 31 g/ha: 31 g ai/ha, Preemergence; for pest or weed control at 125 g/ha: 125 g ai/ha, preemergence, approx. 10 d
In short: as §2

[7] = tested on: ragweed (common ragweed, Ambrosia elatior); experiment: Test A preemergence; settings: Ambrosia artemisiifolia, pre-emergence, 240 h, 0 to 100 scale where 0 is no effect and 100 is complete control, read-out: Ragweed plant response rating; for pest or weed control at 31 g/ha: 31 g ai/ha, Preemergence; for pest or weed control at 125 g/ha: 125 g ai/ha, preemergence, approx. 10 d
In short: as §2

[8] = tested on: giant foxtail (Setaria faberii); experiment: Test A preemergence; settings: Setaria faberi, pre-emergence, 240 h, 0 to 100 scale where 0 is no effect and 100 is complete control, read-out: Foxtail, Giant plant response rating; for pest or weed control at 31 g/ha: 31 g ai/ha, Preemergence; for pest or weed control at 125 g/ha: 125 g ai/ha, preemergence, approx. 10 d
In short: as §2

[9] = tested on: pigweed (Amaranthus retroflexus); experiment: Test A preemergence; settings: Amaranthus retroflexus, pre-emergence, 240 h, 0 to 100 scale where 0 is no effect and 100 is complete control, read-out: Pigweed plant response rating; for pest or weed control at 31 g/ha: 31 g ai/ha, Preemergence; for pest or weed control at 125 g/ha: 125 g ai/ha, preemergence, approx. 10 d
[10] = tested on: Kochia (Kochia scoparia); experiment: Test A preemergence; settings: Bassia scoparia, pre-emergence, 240 h, 0 to 100 scale where 0 is no effect and 100 is complete control, read-out: Kochia plant response rating; for pest or weed control at 31 g/ha: 31 g ai/ha, Preemergence; for pest or weed control at 125 g/ha: 125 g ai/ha, preemergence, approx. 10 d
In short: as §2

[11] = tested on: barnyardgrass (Echinochloa crus-galli); experiment: Test A postemergence; settings: Echinochloa crus-galli, post-emergence, 240 h; for pest or weed control at 125 g/ha: 125 g ai/ha, postemergence, visual injury on 0 to 100 scale (0 no effect, 100 complete control), approx. 10 d, read-out: Barnyardgrass plant response rating; for pest or weed control at 31 g/ha: Postemergence, 31 g ai/ha, visual injury after approx. 10 d, 0 to 100 scale, 0 no effect, 100 complete control, read-out: Plant response rating, Barnyardgrass
In short: as §2

[12] = tested on: ryegrass, Italian (Italian ryegrass, Lolium multiflorum); experiment: Test A postemergence; settings: Lolium multiflorum, post-emergence, 240 h; for pest or weed control at 125 g/ha: 125 g ai/ha, postemergence, visual injury vs untreated controls after approx. 10 d, 0 = no effect, 100 = complete control, read-out: Ryegrass, Italian plant response rating (0 to 100 scale); for pest or weed control at 31 g/ha: Postemergence, 31 g ai/ha, visual injury after approx. 10 d, 0 to 100 scale, 0 no effect, 100 complete control, read-out: Plant response rating, Ryegrass, Italian
In short: as §2

[13] = tested on: Galium (catchweed bedstraw, Galium aparine); experiment: Test A postemergence; settings: Galium, post-emergence, 240 h; for pest or weed control at 125 g/ha: 125 g ai/ha, postemergence, visual injury on 0 to 100 scale (0 no effect, 100 complete control), approx. 10 d, read-out: Galium plant response rating; for pest or weed control at 31 g/ha: Postemergence, 31 g ai/ha, visual injury after approx. 10 d, 0 to 100 scale, 0 no effect, 100 complete control, read-out: Plant response rating, Galium
In short: as §2

[14] = tested on: corn (Zea mays); experiment: Test A postemergence; settings: Zea mays, post-emergence, 240 h; for plant injury at 125 g/ha: 125 g ai/ha, postemergence, visual injury on 0 to 100 scale (0 no effect, 100 complete control), approx. 10 d, read-out: Corn plant response rating; for Corn plant response rating (crop injury, 0 = no effect, 100 = complete kill) at 31 g/ha: Postemergence, 31 g ai/ha, visual injury after approx. 10 d, 0 to 100 scale, 100 complete control
In short: as §2

[15] = tested on: ragweed (common ragweed, Ambrosia elatior); experiment: Test A postemergence; settings: Ambrosia artemisiifolia, post-emergence, 240 h; for pest or weed control at 125 g/ha: 125 g ai/ha, postemergence, visual injury vs untreated controls after approx. 10 d, 0 = no effect, 100 = complete control, read-out: Ragweed plant response rating (0 to 100 scale); for pest or weed control at 31 g/ha: Postemergence, 31 g ai/ha, visual injury after approx. 10 d, 0 to 100 scale, 0 no effect, 100 complete control, read-out: Plant response rating, Ragweed
In short: as §2

[16] = tested on: wheat (Triticum aestivum); experiment: Test A postemergence; settings: Triticum aestivum, post-emergence, 240 h; for plant injury at 125 g/ha: 125 g ai/ha, postemergence, visual injury vs untreated controls after approx. 10 d, 0 = no effect, 100 = complete control, read-out: Wheat plant response rating (0 to 100 scale); for plant injury at 31 g/ha: Postemergence, 31 g ai/ha, visual injury after approx. 10 d, 0 to 100 scale, 0 no effect, 100 complete control, read-out: Plant response rating, Wheat
In short: as §2

[17] = tested on: giant foxtail (Setaria faberii); experiment: Test A postemergence; settings: Setaria faberi, post-emergence, 240 h; for pest or weed control at 125 g/ha: 125 g ai/ha, postemergence, visual injury on 0 to 100 scale (0 no effect, 100 complete control), approx. 10 d, read-out: Foxtail, Giant plant response rating; for pest or weed control at 31 g/ha: Postemergence, 31 g ai/ha, visual injury after approx. 10 d, 0 to 100 scale, 0 no effect, 100 complete control, read-out: Plant response rating, Foxtail, Giant
In short: as §2

[18] = tested on: pigweed (Amaranthus retroflexus); experiment: Test A postemergence; settings: Amaranthus retroflexus, post-emergence, 240 h; for pest or weed control at 125 g/ha: 125 g ai/ha, postemergence, visual injury vs untreated controls after approx. 10 d, 0 = no effect, 100 = complete control, read-out: Pigweed plant response rating (0 to 100 scale); for pest or weed control at 31 g/ha: Postemergence, 31 g ai/ha, visual injury after approx. 10 d, 0 to 100 scale, 0 no effect, 100 complete control, read-out: Plant response rating, Pigweed
In short: as §2

[19] = tested on: Kochia (Kochia scoparia); experiment: Test A postemergence; settings: Bassia scoparia, post-emergence, 240 h; for pest or weed control at 125 g/ha: 125 g ai/ha, postemergence, visual injury on 0 to 100 scale (0 no effect, 100 complete control), approx. 10 d, read-out: Kochia plant response rating; for pest or weed control at 31 g/ha: Postemergence, 31 g ai/ha, visual injury after approx. 10 d, 0 to 100 scale, 0 no effect, 100 complete control, read-out: Plant response rating, Kochia
In short: as §2

[20] = tested on: blackgrass (Alopecurus myosuroides); experiment: Test A postemergence; settings: Alopecurus myosuroides, post-emergence, 240 h; for pest or weed control at 125 g/ha: 125 g ai/ha, postemergence, visual injury on 0 to 100 scale (0 no effect, 100 complete control), approx. 10 d, read-out: Blackgrass plant response rating; for pest or weed control at 31 g/ha: Postemergence, 31 g ai/ha, visual injury after approx. 10 d, 0 to 100 scale, 0 no effect, 100 complete control, read-out: Plant response rating, Blackgrass
In short: as §2

Structure (SMILES) | pest or weed control at 250 g/ha [1] | pest or weed control at 250 g/ha [2] | pest or weed control at 250 g/ha [3] | pest or weed control at 250 g/ha [4] | pest or weed control at 31 g/ha [5] | pest or weed control at 125 g/ha [5] | pest or weed control at 31 g/ha [6] | pest or weed control at 125 g/ha [6] | pest or weed control at 31 g/ha [7] | pest or weed control at 125 g/ha [7] | pest or weed control at 31 g/ha [8] | pest or weed control at 125 g/ha [8] | pest or weed control at 31 g/ha [9] | pest or weed control at 125 g/ha [9] | pest or weed control at 31 g/ha [10] | pest or weed control at 125 g/ha [10] | pest or weed control at 125 g/ha [11] | pest or weed control at 31 g/ha [11] | pest or weed control at 125 g/ha [12] | pest or weed control at 31 g/ha [12] | other results
CN1C[C@H](c2ccc(Cl)cc2)[C@@H](C(=O)Nc2ccc(F)c(F)c2F)C1=O [Compound 1144] | 85% | 0% | 20% | 100% | 90% | 90% | 50% | 50% | 0% | 20% | 90% | 90% | 30% | 80% | 50% | 60% | 90% | 90% | 60% | 30% | pest or weed control at 125 g/ha [13]: 40%; pest or weed control at 31 g/ha [13]: 0%; plant injury at 125 g/ha [14]: 50%; Corn plant response rating (crop injury, 0 = no effect, 100 = complete kill) at 31 g/ha [14]: 20%; pest or weed control at 125 g/ha [15]: 70%; pest or weed control at 31 g/ha [15]: 20%; plant injury at 125 g/ha [16]: 50%; plant injury at 31 g/ha [16]: 30%; pest or weed control at 125 g/ha [17]: 90%; pest or weed control at 31 g/ha [17]: 80%; pest or weed control at 125 g/ha [18]: 30%; pest or weed control at 31 g/ha [18]: 0%; pest or weed control at 125 g/ha [19]: 70%; pest or weed control at 31 g/ha [19]: 50%; pest or weed control at 125 g/ha [20]: 40%; pest or weed control at 31 g/ha [20]: 0%
C=C(C)c1ccc([C@H]2CN(C)C(=O)[C@@H]2C(=O)Nc2cccc(F)c2C)cc1 [Compound 1150] | 0% | 0% | 0% | 0% | 0% | 70% | 0% | 0% | 0% | 0% | 30% | 90% | 0% | 0% | 0% | 0% | 40% | 0% | 0% | 0% | pest or weed control at 125 g/ha [13]: 20%; pest or weed control at 31 g/ha [13]: 0%; plant injury at 125 g/ha [14]: 20%; Corn plant response rating (crop injury, 0 = no effect, 100 = complete kill) at 31 g/ha [14]: 0%; pest or weed control at 125 g/ha [15]: 0%; pest or weed control at 31 g/ha [15]: 0%; plant injury at 125 g/ha [16]: 0%; plant injury at 31 g/ha [16]: 0%; pest or weed control at 125 g/ha [17]: 50%; pest or weed control at 31 g/ha [17]: 0%; pest or weed control at 125 g/ha [18]: 0%; pest or weed control at 31 g/ha [18]: 0%; pest or weed control at 125 g/ha [19]: 20%; pest or weed control at 31 g/ha [19]: 0%; pest or weed control at 125 g/ha [20]: 0%; pest or weed control at 31 g/ha [20]: 0%
